Where only a bound is given, the exact number is not on record here.

Series [1] in a line: water solubility for dissolution distribution in intestinal fluids. In kind it is physicochemical.
The next series deals with cytochrome P450 enzymes. Kind of series: first pass metabolism / inactivation in the intestinal hepatic region. It is filed as in vivo. Particulars: inactivation by cytochrome P450 enzymes in the intestinal hepatic region.
The target of series [2] is T1, glucocorticosteroid receptors (Homo sapiens, UniProt P04150).
T1 sequence (P04150 1-777): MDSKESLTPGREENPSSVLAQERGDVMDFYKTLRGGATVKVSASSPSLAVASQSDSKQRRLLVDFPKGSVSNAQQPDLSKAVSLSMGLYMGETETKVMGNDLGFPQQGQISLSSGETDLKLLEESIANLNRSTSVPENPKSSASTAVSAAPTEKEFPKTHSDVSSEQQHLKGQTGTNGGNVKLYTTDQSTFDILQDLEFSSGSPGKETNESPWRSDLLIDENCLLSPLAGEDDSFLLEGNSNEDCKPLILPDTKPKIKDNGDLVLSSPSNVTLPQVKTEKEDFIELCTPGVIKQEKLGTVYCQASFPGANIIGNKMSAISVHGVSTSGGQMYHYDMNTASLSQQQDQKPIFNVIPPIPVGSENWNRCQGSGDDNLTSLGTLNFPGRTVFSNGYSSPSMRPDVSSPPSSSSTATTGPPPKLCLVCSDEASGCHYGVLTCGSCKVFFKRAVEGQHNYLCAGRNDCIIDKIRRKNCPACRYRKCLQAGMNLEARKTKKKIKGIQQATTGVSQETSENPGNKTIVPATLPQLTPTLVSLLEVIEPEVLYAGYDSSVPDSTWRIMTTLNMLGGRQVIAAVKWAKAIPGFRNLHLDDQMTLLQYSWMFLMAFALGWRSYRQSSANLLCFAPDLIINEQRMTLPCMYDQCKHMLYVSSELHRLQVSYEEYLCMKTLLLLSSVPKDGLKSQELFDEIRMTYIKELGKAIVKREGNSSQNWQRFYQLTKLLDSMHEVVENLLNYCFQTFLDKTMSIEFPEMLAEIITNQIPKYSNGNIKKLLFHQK
Nature of the series: affinity for and activity at glucocorticosteroid receptors. In kind it is binding. As to conditions: compared to other very potent topical steroids.

Series [3] in a line: treatment of irritable bowel syndrome (IBS). As to conditions: in vivo. Here is the method: For testing the effect of rofleponide, its esters and salts in post-infectious irritable bowel syndrome the intestinal neuromuscular dysfunction after acute nematode infection in mice are measured in accordance with the method described in Gasteroenterology 1997, vol. 133, p.1224-1232.

The nature of the next series: oral bioavailability. It is filed as in vivo.

Turning to `CCC[C@@H]1O[C@@H]2C[C@H]3[C@@H]4C[C@H](F)C5=CC(=O)CC[C@]5(C)[C@@]4(F)[C@@H](O)C[C@]3(C)[C@]2(C(=O)CO)O1` [rofleponide, (22R)-16-alpha, 17 alpha-butylidenedioxy-6-alpha, 9alpha-difluoro-11beta,21-dihydroxypregn-4-ene-3,20-dione], the water solubility result in series [1] is “sufficient”. For the same molecule, the first pass metabolism result in the series with cytochrome P450 enzymes is listed as “at least 99%”. Further, in series [2], the “affinity for and activity at glucocorticosteroid receptors” value is recorded as “very high”. Moreover, the “effect in the treatment of irritable bowel syndrome (IBS)” value in series [3] is listed as “effective”. Moreover, the oral bioavailability in “oral bioavailability” is at most 1%.

For the origin of these results see patent publication US20030004214A1, “Use of rofleponide in the treatment of irritable bowel syndrome (ibs)” (priority 2000, published 2003).
